pKi: −log10 of the molar value. Counter-ions that a name gives are not always drawn. Like-named read-outs stand apart in the source and are kept apart here.
Assays:
human H3 receptor = molecular target: T1, human H3 receptor (Homo sapiens, UniProt Q9Y5N1); assay: H3 receptor binding, N-[3H]-α-methylhistamine displacement on SK-N-MC cell membranes; conditions: cloned human H3 receptor in SK-N-MC cell membranes; 0.8 nM N-[3H]-α-methylhistamine; 60 min at 25° C.
T1 construct: expressed in transfected cells; host or cells: SK-N-MC cells

human SERT = molecular target: T2, human SERT (Homo sapiens, UniProt P31645); assay: Human SERT binding, 3H-citalopram displacement on HEK293 membranes; conditions: HEK293 membranes expressing the human SERT, rt for 1 h
T2 construct: expressed in transfected cells; host or cells: HEK293
Protocol: Homogenized HEK293 (Human Embryonic Kidney) membranes expressing the human SERT were incubated with ^3H-citalopram (SERT) at rt for 1 h in 50 mM Tris, 120 mM NaCl, 5 mM KCl (pH 7.4). […] The membranes were washed and the radioactivity was counted as above.

Rat SERT = Rat SERT (Rattus norvegicus, UniProt P31652); assay: Rat brain SERT binding, [3H]-Citalopram displacement on rat brain membranes; conditions: for Ki: Rat SERT Ki (nM)
Protocol: The supernatant was removed and re-centrifuged at 15,000 rpm for 30 min. […] Membranes were incubated with 0.6 nM [^3H]-Citalopram plus/minus test compounds for 60 min at 25° C. and harvested by rapid filtration over GF/C glass fiber filters (pretreated with 0.3% polyethylenimine) followed by four washes with ice-cold buffer.

[1] = read-out: Rat SERT Ki, rat brain membranes without cerebellum, 0.6 nM [3H]-Citalopram, 60 min at 25° C.
[2] = rat brain membranes without cerebellum, 0.6 nM [3H]-Citalopram, 60 min at 25° C.

T1 sequence (Q9Y5N1 whole entry): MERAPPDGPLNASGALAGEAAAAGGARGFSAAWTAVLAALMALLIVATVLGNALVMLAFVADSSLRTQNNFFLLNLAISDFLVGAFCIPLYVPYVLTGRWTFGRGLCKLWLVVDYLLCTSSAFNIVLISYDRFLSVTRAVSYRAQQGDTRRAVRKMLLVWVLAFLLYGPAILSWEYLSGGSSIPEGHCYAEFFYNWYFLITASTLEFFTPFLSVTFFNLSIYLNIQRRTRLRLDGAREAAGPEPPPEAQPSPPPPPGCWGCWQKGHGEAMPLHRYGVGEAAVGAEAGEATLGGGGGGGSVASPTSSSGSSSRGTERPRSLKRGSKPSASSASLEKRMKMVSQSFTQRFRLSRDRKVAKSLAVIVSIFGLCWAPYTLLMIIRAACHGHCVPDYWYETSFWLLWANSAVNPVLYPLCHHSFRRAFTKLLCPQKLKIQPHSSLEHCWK
T2 sequence (P31645 whole entry): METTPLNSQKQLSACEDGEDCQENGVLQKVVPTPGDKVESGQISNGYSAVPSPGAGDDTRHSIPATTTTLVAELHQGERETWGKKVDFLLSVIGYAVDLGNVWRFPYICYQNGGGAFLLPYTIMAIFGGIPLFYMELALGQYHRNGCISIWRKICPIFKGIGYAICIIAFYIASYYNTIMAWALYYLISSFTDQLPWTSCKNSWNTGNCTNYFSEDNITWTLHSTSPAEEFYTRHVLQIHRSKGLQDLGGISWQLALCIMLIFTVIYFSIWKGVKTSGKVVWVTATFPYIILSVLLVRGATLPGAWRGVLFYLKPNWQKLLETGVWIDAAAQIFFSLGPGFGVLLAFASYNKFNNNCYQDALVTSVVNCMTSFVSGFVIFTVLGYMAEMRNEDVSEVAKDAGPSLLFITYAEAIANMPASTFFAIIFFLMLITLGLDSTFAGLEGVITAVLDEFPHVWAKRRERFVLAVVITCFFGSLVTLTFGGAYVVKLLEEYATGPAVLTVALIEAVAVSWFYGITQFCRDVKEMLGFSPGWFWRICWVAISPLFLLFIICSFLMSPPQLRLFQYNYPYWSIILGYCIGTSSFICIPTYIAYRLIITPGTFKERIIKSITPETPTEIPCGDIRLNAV
Sequence of Rat SERT (P31652 whole entry): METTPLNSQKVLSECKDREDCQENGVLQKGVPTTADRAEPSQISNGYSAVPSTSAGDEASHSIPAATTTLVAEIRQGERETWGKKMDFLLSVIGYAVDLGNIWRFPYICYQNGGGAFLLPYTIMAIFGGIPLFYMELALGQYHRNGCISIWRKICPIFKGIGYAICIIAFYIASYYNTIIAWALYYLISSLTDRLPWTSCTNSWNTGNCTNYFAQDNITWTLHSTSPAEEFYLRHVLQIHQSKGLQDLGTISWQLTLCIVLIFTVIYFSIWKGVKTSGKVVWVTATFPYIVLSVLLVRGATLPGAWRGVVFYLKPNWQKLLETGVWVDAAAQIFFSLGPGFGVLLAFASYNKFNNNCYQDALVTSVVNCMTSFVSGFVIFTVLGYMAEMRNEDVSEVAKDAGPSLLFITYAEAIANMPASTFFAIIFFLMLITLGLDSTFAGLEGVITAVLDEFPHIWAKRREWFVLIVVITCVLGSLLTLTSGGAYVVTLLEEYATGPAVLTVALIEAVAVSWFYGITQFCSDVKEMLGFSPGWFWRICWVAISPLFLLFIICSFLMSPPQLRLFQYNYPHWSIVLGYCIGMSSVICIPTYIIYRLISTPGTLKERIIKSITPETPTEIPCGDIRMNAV

Structure (SMILES) | pKi (human H3 receptor) | pKi (human SERT) | pKi (Rat SERT) | pKi (Rat SERT; [1]) | Ki (Rat SERT; [2])
COc1ccc(C2CN(C)Cc3nc(C#CCCN4CCCCC4)ccc32)cc1 (centres unmarked) [Example 51, 5-(4-Methoxy-phenyl)-7-methyl-2-(4-piperidin-1-yl-but-1-ynyl)-5,6,7,8-tetrahydro-[1,7]naphthyridine] | 7.96 | 7.49 | 7.68 |  | 
COc1ccc(C2CN(C)Cc3cc(CCCCN4CCCCC4)cnc32)cc1 (centres unmarked) [Example 49, 8-(4-Methoxy-phenyl)-6-methyl-3-(4-piperidin-1-yl-butyl)-5,6,7,8-tetrahydro-[1,6]-naphthyridine trifluoroacetic acid salt] | 7.11 | 5.70 | 6.21 |  | 
COc1ccc(C2CN(C)Cc3cc(OCCCN4CCOCC4)ncc32)cc1 (centres unmarked) [Example 12, 4-(4-Methoxy-phenyl)-2-methyl-7-(3-morpholin-4-yl-propoxy)-1,2,3,4-tetrahydro-[2,6]-naphthyridine] | 7.05 | 7.15 |  | 7.54 | 
COc1ccc(C2CN(C)Cc3cc(OCCCN4CCC(F)(F)CC4)ncc32)cc1 (centres unmarked) [Example 28, 7-[3-(4,4-Difluoro-piperidin-1-yl)-propoxy]-4-(4-methoxy-phenyl)-2-methyl-1,2,3,4-tetrahydro-[2,6]naphthyridine] | 6.58 |  |  |  | 129 nM
Clc1ccc(C2CNCc3cc(OCCCN4CCCCC4)ncc32)cc1Cl (single isomer, unassigned; enantiomer b) [Example 46, 4-(3,4-Dichloro-phenyl)-7-(3-piperidin-1-yl-propoxy)-1,2,3,4-tetrahydro-[2,6]-naphthyridine (enantiomer B)] | 7.89 | 7.80 |  |  | 17 nM
COc1ccc(C2CN(C)Cc3nc(OCCCN4CCCCC4)ccc32)cc1 (centres unmarked) [Example 50, 5-(4-Methoxy-phenyl)-7-methyl-2-(3-piperidin-1-yl-propoxy)-5,6,7,8-tetrahydro-[1,7]naphthyridine] | 9.00 | 8.15 | 8.40 |  | 
CN1Cc2cc(OCCCN3CCCCC3)ncc2C(c2ccc(Cl)c(Cl)c2)C1 (single isomer, unassigned; enantiomer b) [Example 39, 4-(3,4-Dichloro-phenyl)-2-methyl-7-(3-piperidin-1-yl-propoxy)-1,2,3,4-tetrahydro-[2,6]-naphthyridine (enantiomer B)] | 7.38 |  |  |  | 233 nM
CN1Cc2cc(OCCCN3CCCCC3)ncc2C(c2ccc(Cl)cc2)C1 (centres unmarked) [Example 36, 4-(4-Chloro-phenyl)-2-methyl-7-(3-piperidin-1-yl-propoxy)-1,2,3,4-tetrahydro-[2,6]naphthyridine] | 7.82 | 6.97 |  | 7.66 | 
COc1ccc(C2CNCc3cc(OCCC4CCCN4C)ncc32)cc1 (centres unmarked) [Example 9, 4-(4-Methoxy-phenyl)-7-[2-(1-methyl-pyrrolidin-2-yl)-ethoxy]-1,2,3,4-tetrahydro-[2,6]-naphthyridine] | 8.52 |  |  |  | 43 nM
CN1Cc2cc(OCCCN3CCCCC3)ncc2C(c2ccccc2)C1 (centres unmarked) [Example 3, 2-Methyl-4-phenyl-7-(3-piperidin-1-yl-propoxy)-1,2,3,4-tetrahydro-[2,6]-naphthyridine] | 8.30 | 5.94 |  | 6.24 | 
CN1Cc2cc(OCCCN3CCCCC3)ncc2C(c2ccc(Cl)c(Cl)c2)C1 (single isomer, unassigned; enantiomer a) [Example 38, 4-(3,4-Dichloro-phenyl)-2-methyl-7-(3-piperidin-1-yl-propoxy)-1,2,3,4-tetrahydro-[2,6]-naphthyridine (enantiomer A)] | 7.30 |  |  |  | 56 nM
CCN(CC)CCCOc1cc2c(cn1)C(c1ccc(OC)cc1)CNC2 (centres unmarked) [Example 20, Diethyl-{3-[8-(4-methoxy-phenyl)-5,6,7,8-tetrahydro-[2,6]naphthyridin-3-yloxy]-propyl}-amine] | 7.64 | 6.65 |  | 6.89 | 
COc1ccc(C2CN(C)Cc3cc(OC4CCN(C)CC4)ncc32)cc1 (centres unmarked) [Example 43, 4-(4-Methoxy-phenyl)-2-methyl-7-(1-methyl-piperidin-4-yloxy)-1,2,3,4-tetrahydro-[2,6]naphthyridine] | 6.10 | 5.99 | 6.86 |  | 
CN1Cc2cc(OCCCN3CCCCC3)ncc2C(c2ccc(F)c(Cl)c2)C1 (centres unmarked) [Example 35, 4-(3-Chloro-4-fluoro-phenyl)-2-methyl-7-(3-piperidin-1-yl-propoxy)-1,2,3,4-tetrahydro-[2,6]naphthyridine] | 8.15 | 6.83 | 7.59 |  | 
COc1ccc(C2CN(C)Cc3cc(OCCC4CCCN4C)ncc32)cc1 (centres unmarked) [Example 10, 4-(4-Methoxy-phenyl)-2-methyl-7-[2-(1-methyl-pyrrolidin-2-yl)-ethoxy]-1,2,3,4-tetrahydro-[2,6]-naphthyridine] | 8.40 |  | 7.70 |  | 
COc1ccc(C2CNCc3cc(OCCCN4CCC(F)(F)CC4)ncc32)cc1 (centres unmarked) [Example 19, 7-[3-(4,4-Difluoro-piperidin-1-yl)-propoxy]-4-(4-methoxy-phenyl)-1,2,3,4-tetrahydro-[2,6]-naphthyridine] | 6.68 | 7.29 | 7.25 |  | 
COc1ccc(C2CNCc3cc(OC4CCNCC4)ncc32)cc1 (centres unmarked) [Example 42, 4-(4-Methoxy-phenyl)-7-(piperidin-4-yloxy)-1,2,3,4-tetrahydro-[2,6]naphthyridine] |  |  | 6.97 |  | 
COc1ccc(C2CN(C)Cc3cc(OCC4CCN(C(C)C)CC4)ncc32)cc1 (centres unmarked) [Example 40, 7-(1-Isopropyl-piperidin-4-ylmethoxy)-4-(4-methoxy-phenyl)-2-methyl-1,2,3,4-tetrahydro-[2,6]-naphthyridine] | 7.89 | 7.21 |  | 7.35 | 
COc1ccc(C2CNCc3cc(OC4CCN(Cc5ccccc5)CC4)ncc32)cc1 (centres unmarked) [Example 22, 7-(1-Benzyl-piperidin-4-yloxy)-4-(4-methoxy-phenyl)-1,2,3,4-tetrahydro-[2,6]-naphthyridine] |  |  | 7.06 |  | 
FC(F)(F)Oc1ccc(C2CNCc3cc(OCCCN4CCCCC4)ncc32)cc1 (centres unmarked) [Example 44, 7-(3-Piperidin-1-yl-propoxy)-4-(4-trifluoromethoxy-phenyl)-1,2,3,4-tetrahydro-[2,6]naphthyridine] | 7.74 | 7.15 | 7.13 |  | 
Clc1ccc(C2CNCc3cc(OCCCN4CCOCC4)ncc32)cc1Cl (centres unmarked) [Example 26, 4-(3,4-Dichloro-phenyl)-7-(3-morpholin-4-yl-propoxy)-1,2,3,4-tetrahydro-[2,6]-naphthyridine] | 7.36 | 6.21 |  |  | 64 nM
COc1ccc(C2CNCc3cc(OCCCN4CCOCC4)ncc32)cc1 (centres unmarked) [Example 11, 4-(4-Methoxy-phenyl)-7-(3-morpholin-4-yl-propoxy)-1,2,3,4-tetrahydro-[2,6]-naphthyridine] | 7.37 | 6.72 |  | 7.28 | 
Clc1ccc(C2CNCc3cc(OCCCN4CCCCC4)ncc32)cc1Cl (single isomer, unassigned; enantiomer a) [Example 45, 4-(3,4-Dichloro-phenyl)-7-(3-piperidin-1-yl-propoxy)-1,2,3,4-tetrahydro-[2,6]-naphthyridine (enantiomer A)] | 8.40 |  | 7.00 |  | 
COc1cccc(C2CN(C)Cc3cc(OCCCN4CCCCC4)ncc32)c1 (centres unmarked) [Example 14, 4-(3-Methoxy-phenyl)-2-methyl-7-(3-piperidin-1-yl-propoxy)-1,2,3,4-tetrahydro-[2,6]-naphthyridine] | 8.10 | 6.52 |  | 7.23 | 
CC(C)N1CCC(COc2cc3c(cn2)C(c2ccc(Cl)c(Cl)c2)CN(C)C3)CC1 (centres unmarked) [Example 41, 4-(3,4-Dichloro-phenyl)-7-(1-isopropyl-piperidin-4-ylmethoxy)-2-methyl-1,2,3,4-tetrahydro-[2,6]naphthyridine] | 7.89 | 7.51 |  | 7.64 | 
COc1ccc(C2CN(C)Cc3cc(C#CCCN4CCCCC4)cnc32)cc1 (centres unmarked) [Example 48, 8-(4-Methoxy-phenyl)-6-methyl-3-(4-piperidin-1-yl-but-1-ynyl)-5,6,7,8-tetrahydro-[1,6]naphthyridine trifluoroacetic acid salt] | 7.35 | 5.70 | 6.00 |  | 
CCN(CC)CCCOc1cc2c(cn1)C(c1ccc(Cl)c(Cl)c1)CN(C)C2 (centres unmarked) [Example 30, {3-[8-(3,4-Dichloro-phenyl)-6-methyl-5,6,7,8-tetrahydro-[2,6]naphthyridin-3-yloxy]-propyl}-diethyl-amine] | 7.80 | 7.52 |  | 7.48 | 
CN1Cc2cc(OCCCN3CCCCC3)ncc2C(c2cccc(Cl)c2)C1 (centres unmarked) [Example 27, 4-(3-Chloro-phenyl)-2-methyl-7-(3-piperidin-1-yl-propoxy)-1,2,3,4-tetrahydro-[2,6]-naphthyridine] | 8.15 | 6.08 |  | 6.84 | 
COc1ccc(C2CN(C)Cc3cc(OCCCN4CCCCC4)ncc32)cc1 (centres unmarked) [Example 8, 4-(4-Methoxy-phenyl)-2-methyl-7-(3-piperidin-1-yl-propoxy)-1,2,3,4-tetrahydro-[2,6]-naphthyridine] | 7.92 | 6.97 |  | 7.47 | 
CCN(CC)CCCOc1cc2c(cn1)C(c1ccc(OC)cc1)CN(C)C2 (centres unmarked) [Example 29, Diethyl-{3-[8-(4-methoxy-phenyl)-6-methyl-5,6,7,8-tetrahydro-[2,6]naphthyridin-3-yloxy]-propyl}-amine] | 7.89 | 7.18 |  | 7.72 | 

From patent US7417054B2, “Naphthyridine compounds” (Janssen Pharmaceutica N.V., priority 2005, dated 2008)
